This passage reports melting point results from a melting point compilation (Tetko et al.).

On to `O=C(CNCc1cccnc1)Nc1ccc(Cl)cc1`, for which the melting point (usually the temperature of the solid-liquid transition) was in the range of 81 to 83 °C.

As to `Nc1ccc(OCc2ccccn2)c(F)c1`, the melting point is 67 to 69 °C.

With `CC(C)C(NC(=O)OC(C)(C)C)C(N)=NO` (stereo not drawn), the melting point was 182 to 184 °C.

Compound `O=C(c1ccc(F)cc1)N1CCCCC(Cl)C1=O` (stereo not drawn) showed a melting point of 143 to 145 °C.

The compound `CC1(c2ccc(F)cc2Cl)NC(=O)NC1=O` (stereo not drawn) returned a melting point of 214 to 216 °C.

With `CN(C1CCCCC1)S(=O)(=O)c1ccc(S)nc1`, the melting point lay within 175 to 177 °C.

Compound `Nc1cc(-c2ccc(F)cc2F)on1` yielded a melting point of 122 to 124 °C.

As for `Nc1ccc(-n2ccnc2)nc1`, the melting point lay in the range of 114 to 116 °C.

In the case of `O=C(O)C(=O)c1ccc(Br)cc1O`, the melting point lay within 188 to 190 °C.

As for `COc1cc(C(=O)O)cc([N+](=O)[O-])c1OC`, the melting point lay in the range of 193 to 195 °C.

As for `C#CCS(=O)(=O)CCNC(=O)OC(C)(C)C`, the melting point fell in the range of 126 to 128 °C.

The compound `O=C(CCl)NN1C(=O)NC2(CCCCC2)C1=O` came in with a melting point of 105 to 107 °C.

In turn, `CCOC(=O)/C(C#N)=C\Nc1ccc(F)cc1Cl` yielded a melting point of 168 to 170 °C.

As to `COc1ccc(C(=O)O)cc1S(=O)(=O)N(C)Cc1ccccc1`, the melting point lay in the range of 180 to 182 °C.

Turning to `CC(Cc1ccc(Cl)cc1)NC(=O)OC(C)(C)C` (stereo not drawn), the melting point was in the range of 93 to 95 °C.

Regarding `CC(=O)CC(=O)Nc1ccc(I)cc1`, the melting point was in the range of 142 to 144 °C.

Turning to `CCCCNc1ccc(S(=O)(=O)N2CCCC2)cc1N`, the melting point lay in the range of 208 to 210 °C.

Compound `Cc1nc(S)n(C2CC2)c1C` came in with a melting point of 178 to 180 °C.

As for `Sc1nnc(-c2sc3ccccc3c2Cl)o1`, the melting point was in the range of 231 to 233 °C.

Take `CS(=O)(=O)c1cccc(C(=O)c2ccc(F)c(F)c2)c1`: the melting point lay within 122 to 124 °C.

`CCn1nc(C)c(C(=O)O)c1C` displayed a melting point of 139 to 141 °C.

Compound `CN1CCN(c2ccc(CN)cn2)CC1` had a melting point of 60 to 62 °C.

Regarding `Cc1ccc(Cl)c(OC(C)C(=O)O)c1` (stereo not drawn), the melting point fell in the range of 137 to 139 °C.

Turning to `CNS(=O)(=O)c1ccc2c(c1)NCC2`, the melting point lay within 86 to 88 °C.

On to `O=CNc1ccc2c(c1)OCO2`, for which the melting point was 96 to 98 °C.

Compound `CCCn1c(=O)[nH]c(=O)c2c(C(=O)O)cc(-c3ccccc3)nc21` showed a melting point of 230 to 232 °C.

Take `Oc1cc(C2CC2)ncn1`: the melting point was in the range of 188 to 190 °C.

As for `Cc1nc(C2CCCC2)sc1C(=O)O`, the melting point lay in the range of 185 to 187 °C.

`CC(=O)NC1=NN(C(C)=O)C(C)(c2ccccc2)S1` (stereo not drawn) returned a melting point of 223 to 225 °C.

`N#CC(N)c1cnn(-c2ccccc2)c1` (stereo not drawn) registered a melting point of 98 to 100 °C.

As for `O=C1NC(=O)C2(CCc3cc(Cl)ccc32)N1` (stereo not drawn), the melting point is 252 to 254 °C.

The compound `CC(=O)Nc1c(C)n[nH]c1C` came in with a melting point of 202 to 204 °C.

For `NC(=O)c1ccc(S(N)(=O)=O)s1`, the melting point lay within 214 to 216 °C.

As to `NNC(=O)Cc1cccs1`, the melting point was 64 to 66 °C.

Consider `CS(=O)(=O)c1ccc(NC(=O)OCC(F)(F)F)cc1`, for which the melting point is 175 to 177 °C.

In turn, `Cn1cc(C2NC(=O)CCC2N)cn1` (stereo not drawn) came in with a melting point of 164 to 166 °C.

As to `Cc1cccc(NC(=O)CSCC(=O)O)c1`, the melting point lay in the range of 200 to 206 °C.

`Nc1cc(-c2ccccc2F)no1` returned a melting point of 118 to 120 °C.

In the case of `COc1ccc(-c2nnc(S)n2N)c(OC)c1`, the melting point fell in the range of 200 to 202 °C.

Consider `COc1cc(/C=C(/C#N)C(=O)O)ccc1O`, for which the melting point is 199 to 201 °C.

`N#CCc1cnn(-c2ccccc2)c1` showed a melting point of 38 to 40 °C.

For `Cc1cc(CC(=O)O)c(C)s1`, the melting point lay in the range of 66 to 68 °C.

`CCNC(=O)c1ccc(I)cc1` returned a melting point of 148 to 150 °C.

Turning to `COc1ccc(C(=O)C(Cl)c2ccc(OC)cc2)cc1` (stereo not drawn), the melting point lay in the range of 69 to 71 °C.

`CC1CCC(C(C)C)C(OC(=O)CO)C1` (stereo not drawn): the melting point was in the range of 85 to 87 °C.

`COc1ccc(NS(=O)(=O)c2cccc(N)c2)cc1` came in with a melting point of 109 to 111 °C.

The compound `Cc1nsc(N)c1C(=O)O` displayed a melting point of 158 to 160 °C.

In the case of `CCOC(=O)Cc1csc(NC(=O)Cc2ccccc2)n1`, the melting point was 92 to 94 °C.

Consider `N#Cc1cc2c(nc1Cl)CCCC2`, for which the melting point fell in the range of 128 to 130 °C.

In turn, `O=C1CCSc2ccccc2N1` returned a melting point of 208 to 210 °C.

`N#CCc1ccc(Oc2ccc(C(=O)O)cc2)cc1` gave a melting point of 183 to 185 °C.

The compound `Cc1ccc(C2(C)NC(=O)NC2=O)c(C)c1` (stereo not drawn) displayed a melting point of 144 to 146 °C.

The compound `NC(=O)COc1ccc(C=O)cc1` displayed a melting point of 134 to 136 °C.

`N#Cc1ccccc1NC(=O)c1ccccn1` gave a melting point of 136 to 138 °C.

As for `O=C(Cc1nc2ccccc2[nH]1)NCc1ccccn1`, the melting point fell in the range of 176 to 178 °C.

`NC(=O)CCNc1ccccc1[N+](=O)[O-]`: the melting point is 136 to 138 °C.

Turning to `O=C(O)C=Cc1cc(Br)cs1`, the melting point is 169 to 171 °C.

On to `Cc1ccc2oc(C(=O)O)cc2c1`, for which the melting point is 243 to 245 °C.

Consider `CN(C)C(=O)Cn1cc(C(=O)O)nn1`, for which the melting point lay in the range of 199 to 201 °C.

`O=C(O)C1CCCN1c1ncnc2ccccc12` (stereo not drawn): the melting point was 139 to 141 °C.

The compound `COc1ccc(-c2nc(C)c(C(C)=O)s2)cc1` had a melting point of 92 to 94 °C.

On to `FC(F)(F)C1(NCc2ccccc2)CCC2(CC1)OCCO2`, for which the melting point was in the range of 83 to 85 °C.

Regarding `Cc1cc(C)n(-c2cncc(Cl)n2)n1`, the melting point lay in the range of 88 to 90 °C.

Compound `CN(C(=O)c1ccccc1O)C1CCCC1` registered a melting point of 65 to 74 °C.

As for `COc1ccc(S(=O)(=O)NC2CC2)cc1N`, the melting point is 119 to 121 °C.

On to `CCC(=O)NCC(=O)O`, for which the melting point fell in the range of 121 to 123 °C.

`Cc1ccn2c(C=O)cnc2c1` had a melting point of 80 to 82 °C.

For `CC1CC(C)(C)NC1=O` (stereo not drawn), the melting point was 77 to 79 °C.

Turning to `CCS(=O)(=O)c1ccc(Cl)c(C(=O)O)c1`, the melting point lay within 144 to 146 °C.

Compound `Cc1ccc2ncccc2c1Br` registered a melting point of 44 to 46 °C.

Compound `O=C(CC(=O)c1ccccc1)Nc1ccccc1` had a melting point of 107 to 109 °C.

`Cc1n[nH]c(C)c1[N+](=O)[O-]` came in with a melting point of 121 to 123 °C.

Compound `CC(C)CCNS(=O)(=O)c1ccc(N)cc1` returned a melting point of 119 to 121 °C.

As for `O=[N+]([O-])c1ccc2c(S(=O)(=O)Cl)c[nH]c2c1`, the melting point is 173 to 175 °C.

Compound `Cn1c(S)nnc1-c1ccccc1Cl` displayed a melting point of 144 to 146 °C.

For `COC(=O)c1ccc(Oc2cccnc2)cc1`, the melting point fell in the range of 82 to 84 °C.

As to `COc1cccc(CNC(=O)n2ccnc2)c1`, the melting point is 98 to 100 °C.

`Nc1cncnc1N1CCCC1` came in with a melting point of 156 to 158 °C.

Turning to `O=C(NCCO)c1cncc(Br)c1`, the melting point was in the range of 128 to 130 °C.

For the compound `Cc1nc(-c2ccc(Cl)cc2)sc1C(C)N` (stereo not drawn), the melting point lay in the range of 42 to 44 °C.

On to `COc1ccc2c(C)cc(NN)nc2c1`, for which the melting point lay in the range of 250 to 252 °C.

For the compound `Nc1cc(Br)cc(C(=O)O)c1`, the melting point fell in the range of 217 to 221 °C.

In the case of `NC(CN1CCCCCC1)=NO`, the melting point was 124 to 126 °C.

`CC(C)C(=O)Nc1cccc(F)c1C(=O)O`: the melting point was 128 to 130 °C.

Turning to `c1cncc(NCc2ccsc2)c1`, the melting point is 62 to 64 °C.

Regarding `O=C(O)Cc1cccc2sccc12`, the melting point fell in the range of 127 to 129 °C.

In turn, `O=C(O)c1cnn(-c2ccccc2F)c1` displayed a melting point of 160 to 162 °C.

For the compound `C=CCc1cc(C(=O)OC)cc(OC)c1O`, the melting point was 76 to 78 °C.

Turning to `COc1ccc(S(=O)(=O)Cl)cc1C`, the melting point fell in the range of 51 to 53 °C.

Consider `COc1ccc(-n2nc(N)cc2C)cc1`, for which the melting point fell in the range of 87 to 89 °C.

The compound `CCc1nnc(-c2cccc(N)c2)o1` showed a melting point of 88 to 90 °C.

`CC(C)n1c(Cl)nnc1-c1ccccc1` gave a melting point of 129 to 131 °C.

`CNCCCc1cc(-c2ccc(F)cc2)no1` returned a melting point of 146 to 148 °C.

As for `O=C(O)CNS(=O)(=O)c1ccc2c(c1)nnn2O`, the melting point lay within 229 to 231 °C.

Turning to `C=CC(CC(=O)O)c1ccccc1` (stereo not drawn), the melting point was in the range of 39 to 41 °C.

As for `COc1ccccc1NCC(=O)NN`, the melting point lay in the range of 103 to 105 °C.

`COC(=O)c1c(C)[nH]c(C(=O)CCl)c1C` returned a melting point of 166 to 168 °C.

With `Clc1ccc(NCCc2ccccc2)nn1`, the melting point lay in the range of 159 to 161 °C.

Regarding `C=CCn1c(S)nc2sccc2c1=O`, the melting point was in the range of 212 to 214 °C.

`COC(=O)c1ccc([N+](=O)[O-])cc1N` returned a melting point of 156 to 158 °C.

For the compound `COC(=O)c1nscc1N`, the melting point lay in the range of 54 to 56 °C.

Consider `CCOC(=O)Nc1c(F)cc(F)cc1C#C[Si](C)(C)C`, for which the melting point was in the range of 74 to 76 °C.

`Oc1ccc(Oc2ccccn2)cc1`: the melting point was in the range of 142 to 144 °C.

Take `O=C(O)CNS(=O)(=O)c1ccc(F)cc1`: the melting point was in the range of 146 to 148 °C.

The compound `CCS(=O)(=O)c1cccc(F)c1N` yielded a melting point of 91 to 93 °C.

`COc1nc(Cl)c(C=O)n1C` gave a melting point of 105 to 107 °C.

As for `CC(C)(C(=O)O)c1cccc(C#N)c1`, the melting point lay within 91 to 93 °C.

For `Cc1nn(C)cc1CCC(=O)O`, the melting point is 114 to 116 °C.

`CCNC(=O)CN1CCNCC1`: the melting point was in the range of 83 to 85 °C.

`CC(O)C(=O)Nc1ccccc1` (stereo not drawn) yielded a melting point of 52 to 54 °C.

For the compound `O=C1CCC(c2ccc(F)cc2)=NN1`, the melting point lay within 193 to 195 °C.

As to `CCOC(=O)C(NS(=O)(=O)CC)C(=O)OCC`, the melting point is 51 to 53 °C.

With `Cn1c(NCCO)nc2ccccc21`, the melting point lay in the range of 75 to 77 °C.

Compound `NS(=O)(=O)c1cccc(N2CC(C(=O)O)CC2=O)c1` (stereo not drawn) registered a melting point of 168 to 170 °C.

Compound `CCc1ccc(N)c(C(=O)O)c1` returned a melting point of 127 to 129 °C.

`COC(=O)c1c[nH]nn1` gave a melting point of 139 to 141 °C.

Turning to `CC(Br)c1ccc([N+](=O)[O-])cc1` (stereo not drawn), the melting point lay in the range of 33 to 35 °C.

`NC(=S)Nc1cc(F)cc(F)c1` displayed a melting point of 149 to 151 °C.

The compound `NC(=S)COc1ccc(F)cc1` had a melting point of 120 to 122 °C.

On to `O=C(CC1CCCC1)N1CCNCC1`, for which the melting point was in the range of 37 to 39 °C.

Consider `O=C1C=C(c2ccccc2)CCC1`, for which the melting point was in the range of 63 to 65 °C.

`O=C(O)c1ccnc(-n2cncn2)c1` came in with a melting point of 314 to 316 °C.

As for `Cc1nc(O)c2c(n1)CN(Cc1ccccc1)CC2`, the melting point fell in the range of 211 to 213 °C.
